Experimental data taken from patent US20250236608A1, “EGFR INHIBITORS” (Blueprint Medicines Corporation, priority 2022, published 2025).

Key:
[1] = molecular target: pEGFR (Tyr1068) in PC-9 cells (Ex19Del) (Homo sapiens (Human), UniProt P00533, DEL746-750); assay: PC-9 pEGFR AlphaLISA assay; type: cell-based; settings: 4 hours incubation, p-EGFR (Tyr1068) AlphaLISA, read-out: Ext pEGFR_PC-9 Ex19Del IC50
In short: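 Compounds are added in ten 4-fold dilutions to adherent cells grown in serum-containing (10% FBS) phenol-free DMEM and left for 4 hours at 37° C. Phosphorylated receptor in lysates is quantified by bead-based AlphaLISA. IC50 values derive from inhibition plotted against log dose.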

EGFR L858R = EGFR L858R (Homo sapiens (Human), UniProt P00533, L858R); assay: Biochemical EGFR inhibition assay, EGFR L858R; settings: Caliper mobility shift; 1.0 mM ATP or ATP Km; read-out: Enz EGFR_L858R IC50
Chain of EGFR L858R (P00533 25-1210 L858R): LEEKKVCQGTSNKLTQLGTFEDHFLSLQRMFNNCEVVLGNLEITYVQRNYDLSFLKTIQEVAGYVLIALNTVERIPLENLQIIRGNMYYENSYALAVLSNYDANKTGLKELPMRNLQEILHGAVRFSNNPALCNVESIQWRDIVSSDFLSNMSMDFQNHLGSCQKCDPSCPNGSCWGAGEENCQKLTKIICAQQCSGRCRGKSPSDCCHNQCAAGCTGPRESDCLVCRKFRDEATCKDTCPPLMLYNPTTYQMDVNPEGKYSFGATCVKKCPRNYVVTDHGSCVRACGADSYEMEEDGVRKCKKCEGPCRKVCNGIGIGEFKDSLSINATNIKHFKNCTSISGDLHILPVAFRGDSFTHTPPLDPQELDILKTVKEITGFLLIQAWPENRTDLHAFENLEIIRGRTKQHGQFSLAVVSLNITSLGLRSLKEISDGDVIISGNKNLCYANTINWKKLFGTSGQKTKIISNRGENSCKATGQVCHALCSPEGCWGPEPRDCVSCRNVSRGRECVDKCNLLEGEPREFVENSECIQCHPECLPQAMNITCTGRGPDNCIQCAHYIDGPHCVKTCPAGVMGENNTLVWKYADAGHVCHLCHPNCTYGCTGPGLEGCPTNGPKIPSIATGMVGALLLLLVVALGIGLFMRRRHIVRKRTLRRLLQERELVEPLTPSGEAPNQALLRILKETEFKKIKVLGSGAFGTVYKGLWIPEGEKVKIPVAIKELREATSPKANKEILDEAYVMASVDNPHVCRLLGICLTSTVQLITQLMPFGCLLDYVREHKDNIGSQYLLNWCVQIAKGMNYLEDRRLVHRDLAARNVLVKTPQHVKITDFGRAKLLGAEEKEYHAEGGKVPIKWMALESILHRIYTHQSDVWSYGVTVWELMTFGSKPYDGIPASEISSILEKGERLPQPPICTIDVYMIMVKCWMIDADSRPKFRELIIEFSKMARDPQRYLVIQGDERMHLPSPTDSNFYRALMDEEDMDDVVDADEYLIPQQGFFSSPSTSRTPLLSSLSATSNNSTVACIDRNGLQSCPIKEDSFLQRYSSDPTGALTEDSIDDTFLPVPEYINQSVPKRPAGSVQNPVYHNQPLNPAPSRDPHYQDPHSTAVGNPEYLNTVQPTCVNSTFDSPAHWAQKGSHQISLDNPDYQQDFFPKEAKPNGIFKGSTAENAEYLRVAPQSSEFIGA

EGFR (d746-750) = EGFR (d746-750) (Homo sapiens (Human), UniProt P00533, DEL746-750); assay: Biochemical EGFR inhibition assay, EGFR (d746-750); settings: Caliper mobility shift; 1.0 mM ATP or ATP Km; read-out: Enz EGFR_Exon19-del746-750 IC50
Chain of EGFR (d746-750) (P00533 other isoform, or with tags, fused parts or gaps del 1-694/del 746-750 limits assumed): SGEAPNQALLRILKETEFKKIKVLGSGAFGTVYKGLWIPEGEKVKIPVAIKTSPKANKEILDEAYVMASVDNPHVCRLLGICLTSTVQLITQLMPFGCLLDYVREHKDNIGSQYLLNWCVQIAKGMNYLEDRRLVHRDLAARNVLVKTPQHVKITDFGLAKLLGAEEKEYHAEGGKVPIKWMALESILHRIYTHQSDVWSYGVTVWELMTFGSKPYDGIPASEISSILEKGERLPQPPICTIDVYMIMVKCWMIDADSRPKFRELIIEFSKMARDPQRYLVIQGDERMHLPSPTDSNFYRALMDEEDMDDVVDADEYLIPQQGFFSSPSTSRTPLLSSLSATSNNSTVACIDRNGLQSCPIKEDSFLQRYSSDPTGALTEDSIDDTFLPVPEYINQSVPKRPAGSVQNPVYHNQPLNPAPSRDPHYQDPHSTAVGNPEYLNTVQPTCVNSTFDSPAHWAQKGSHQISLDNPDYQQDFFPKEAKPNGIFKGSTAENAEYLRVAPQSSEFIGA

Chain of pEGFR (Tyr1068) in PC-9 cells (Ex19Del) (P00533 other isoform, or with tags, fused parts or gaps del 746-750): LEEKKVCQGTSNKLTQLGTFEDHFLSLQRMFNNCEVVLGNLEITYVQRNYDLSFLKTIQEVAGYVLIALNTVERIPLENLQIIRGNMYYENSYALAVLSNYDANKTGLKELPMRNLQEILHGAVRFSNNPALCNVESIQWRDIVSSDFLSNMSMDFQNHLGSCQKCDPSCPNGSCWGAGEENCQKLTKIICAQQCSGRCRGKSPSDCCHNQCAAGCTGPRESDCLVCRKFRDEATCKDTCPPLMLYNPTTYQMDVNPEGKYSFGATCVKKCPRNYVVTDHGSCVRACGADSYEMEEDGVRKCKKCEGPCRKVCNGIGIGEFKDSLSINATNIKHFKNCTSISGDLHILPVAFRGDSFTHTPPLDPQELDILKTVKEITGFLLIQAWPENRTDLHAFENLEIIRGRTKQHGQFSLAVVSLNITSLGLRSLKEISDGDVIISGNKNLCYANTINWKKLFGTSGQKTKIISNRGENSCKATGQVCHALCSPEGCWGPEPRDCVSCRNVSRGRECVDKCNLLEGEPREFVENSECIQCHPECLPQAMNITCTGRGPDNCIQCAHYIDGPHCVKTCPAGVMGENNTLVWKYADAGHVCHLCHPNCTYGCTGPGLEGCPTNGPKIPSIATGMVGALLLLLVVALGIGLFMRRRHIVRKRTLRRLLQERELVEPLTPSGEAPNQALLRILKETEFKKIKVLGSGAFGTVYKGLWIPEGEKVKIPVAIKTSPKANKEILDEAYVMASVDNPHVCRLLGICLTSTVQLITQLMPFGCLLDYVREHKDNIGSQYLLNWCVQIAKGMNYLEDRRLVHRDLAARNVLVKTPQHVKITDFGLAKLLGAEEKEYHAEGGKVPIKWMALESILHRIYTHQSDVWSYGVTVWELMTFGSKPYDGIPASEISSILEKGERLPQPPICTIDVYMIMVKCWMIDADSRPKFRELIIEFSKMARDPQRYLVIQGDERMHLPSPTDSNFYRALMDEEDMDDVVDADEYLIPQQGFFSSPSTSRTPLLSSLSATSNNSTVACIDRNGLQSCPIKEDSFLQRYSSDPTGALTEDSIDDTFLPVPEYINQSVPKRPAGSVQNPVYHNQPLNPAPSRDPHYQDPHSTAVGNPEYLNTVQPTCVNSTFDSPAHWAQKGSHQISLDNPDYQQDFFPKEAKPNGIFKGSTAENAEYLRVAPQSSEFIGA

| Structure (SMILES) | IC50 [1] | IC50 (EGFR L858R) | IC50 (EGFR (d746-750)) |
| --- | --- | --- | --- |
| COc1cc2ncnc(-c3cn(C)nc3-c3ccccc3)c2nc1O[C@@H](C)c1cocn1 [Example 39, (S)-4-(1-((7-methoxy-4-(1-methyl-3-phenyl-1H-pyrazol-4-yl)pyrido[3,2-d]pyrimidin-6-yl)oxy)ethyl) oxazole] | 5.3 nM | 3.5 nM | 2.1 nM |
| CCC(=O)Nc1cc2c(-c3cn(C)nc3-c3ccccc3)ncnc2cc1-n1ccc(C)n1 [Example 450, N-(7-(3-methyl-1H-pyrazol-1-yl)-4-(1-methyl-3-phenyl-1H-pyrazol-4-yl)quinazolin-6-yl)propionamide] | 1 nM | 1.2 nM | 0.7 nM |
| CCOc1cc2ncnc(-c3cn(C)nc3-c3ccccc3)c2cc1OC1CCN(C)CC1 [Example 9, 7-ethoxy-4-(1-methyl-3-phenyl-1H-pyrazol-4-yl)-6-((1-methylpiperidin-4-yl)oxy)quinazoline] | 9.8 nM | 13.1 nM | 6.4 nM |
| COc1cc2ncnc(-c3cn(C)nc3-c3ccccc3)c2nc1OC(C)c1cccnc1F (stereo not drawn) [Example 30, 6-(1-(2-fluoropyridin-3-yl)ethoxy)-7-methoxy-4-(1-methyl-3-phenyl-1H-pyrazol-4-yl)pyrido[3,2-d]pyrimidine] | 1.1 nM | 1.4 nM | 1 nM |
| Cc1c(-c2ncnc3cc(-c4cnn(C)c4)ccc23)c(-c2ccccc2)nn1C [Example 480, 4-(1,5-dimethyl-3-phenyl-1H-pyrazol-4-yl)-7-(1-methyl-1H-pyrazol-4-yl)quinazoline] | 69.1 nM | 5.6 nM | 4.4 nM |
| COc1cc2ncnc(-c3cn(C)nc3-c3ccccc3)c2nc1O[C@@H](C)c1nnc(C)s1 (single isomer, unassigned) [Example 51, (S)-2-(1-((7-methoxy-4-(1-methyl-3-phenyl-1H-pyrazol-4-yl)pyrido[3,2-d]pyrimidin-6-yl)oxy)ethyl)-5-methyl-1,3,4-thiadiazole or (R)-2-(1-((7-methoxy-4-(1-methyl-3-phenyl-1H-pyrazol-4-yl)pyrido[3,2-d]pyrimidin-6-yl)oxy)ethyl)-5-methyl-1,3,4-thiadiazole] | 30.6 nM | 6.9 nM | 5.3 nM |
| COc1cc2ncnc(-c3cn(CC(F)F)nc3-c3ccccc3)c2cc1NC(=O)c1cnsc1 [Example 271, N-(4-(1-(2,2-difluoroethyl)-3-phenyl-1H-pyrazol-4-yl)-7-methoxyquinazolin-6-yl)isothiazole-4-carboxamide] | 1 nM | 1.3 nM | 0.8 nM |
| COc1cc2ncnc(-c3cn(C)nc3-c3ccccc3)c2cc1O[C@H]1CN(C)C[C@@H]1F [Example 6, 6-(((3S,4S)-4-fluoro-1-methylpyrrolidin-3-yl)oxy)-7-methoxy-4-(1-methyl-3-phenyl-1H-pyrazol-4-yl)quinazoline] | 3.5 nM | 2.3 nM | 1.7 nM |
| COc1cc2ncnc(-c3cn(C)nc3-c3ccccc3)c2cc1OC(=O)N1C[C@H](C)N(C)C[C@@H]1C [Example 97, 7-methoxy-4-(1-methyl-3-phenyl-1H-pyrazol-4-yl)quinazolin-6-yl (2S,5S)-2,4,5-trimethylpiperazine-1-carboxylate] | 12.4 nM | 7.8 nM | 4.9 nM |
| CCc1nc2c(-c3cn(C)nc3-c3ccccc3)ncnc2cc1OC [Example 136, 6-ethyl-7-methoxy-4-(1-methyl-3-phenyl-1H-pyrazol-4-yl)pyrido[3,2-d]pyrimidine] | 1.3 nM | 0.8 nM | 0.4 nM |
| Cn1cc(-c2ncnc3cc(C#CCN4CCOCC4)c(NC(=O)C45CC(C4)C5)nc23)c(-c2ccccc2)n1 [Example 454, N-(4-(1-methyl-3-phenyl-1H-pyrazol-4-yl)-7-(3-morpholinoprop-1-yn-1-yl)pyrido[3,2-d]pyrimidin-6-yl)bicyclo[1.1.1]pentane-1-carboxamide] | 11 nM | 18.1 nM | 4.8 nM |
| COc1cc2ncnc(-c3cn(C)nc3-c3ccccc3F)c2cc1NC(=O)c1ccc(C2CC2)nc1 [Example 230, 6-cyclopropyl-N-(4-(3-(2-fluorophenyl)-1-methyl-1H-pyrazol-4-yl)-7-methoxyquinazolin-6-yl) nicotinamide] | 2.3 nM | 1.5 nM | 0.9 nM |
| CCn1cc(-c2ncnc3cc(OC)c(NC(=O)c4cccnc4)cc23)c(-c2ccccc2)n1 [Example 332, N-(4-(1-ethyl-3-phenyl-1H-pyrazol-4-yl)-7-methoxyquinazolin-6-yl) nicotinamide] | 2.1 nM | 2.3 nM | 1.6 nM |
| COc1cc2ncnc(-c3cn(C)nc3-c3ccccc3)c2nc1OC(C)c1cocn1 (stereo not drawn) [Example 28, 4-(1-((7-methoxy-4-(1-methyl-3-phenyl-1H-pyrazol-4-yl)pyrido[3,2-d]pyrimidin-6-yl)oxy)ethyl)oxazole] | 0.7 nM | 1.2 nM | 0.9 nM |
| COc1cc2ncnc(-c3cn(C)nc3-c3ccccc3)c2cc1OC(=O)N1CCN(C)[C@H](C)[C@@H]1C [Example 98, 7-methoxy-4-(1-methyl-3-phenyl-1H-pyrazol-4-yl)quinazolin-6-yl (2S,3R)-2,3,4-trimethylpiperazine-1-carboxylate] | 9.3 nM | 6.8 nM | 3.4 nM |
| CN(C)C12CC(C(=O)Nc3nc4c(-c5cn(C)nc5-c5ccccc5F)ncnc4cc3OC(F)F)(C1)C2 [Example 468, N-[7-(difluoromethoxy)-4-[3-(2-fluorophenyl)-1-methyl-1H-pyrazol-4-yl]pyrido[3,2-d]pyrimidin-6-yl]-3-(dimethylamino) bicyclo[1.1.1]pentane-1-carboxamide] | 22 nM | 60.4 nM | 7.4 nM |
| COc1cc2ncnc(-c3cn(C)nc3-c3ccccc3)c2cc1-c1cnc2c(ccn2C)c1 [Example 140, 7-methoxy-6-(1-methyl-1H-pyrrolo[2,3-b]pyridin-5-yl)-4-(1-methyl-3-phenyl-1H-pyrazol-4-yl)quinazoline] | 6.7 nM | 4.5 nM | 1.9 nM |
| CN(C)C12CC(C(=O)Nc3nc4c(-c5cn(C)nc5-c5ccccc5F)ncnc4cc3OC3CC3)(C1)C2 [Example 469, N-{7-cyclopropoxy-4-[3-(2-fluorophenyl)-1-methyl-1H-pyrazol-4-yl]pyrido[3,2-d]pyrimidin-6-yl}-3-(dimethylamino) bicyclo[1.1.1]pentane-1-carboxamide] | 2.7 nM | 11.1 nM | 2.4 nM |
| [2H]C([2H])([2H])n1ncc(-c2ncnc3cc(OC)c(NC(=O)C45CC(N(C)C)(C4)C5)nc23)c1-c1ccccc1 [Example 493] | 258 nM | 92.4 nM | 31.9 nM |
| COc1cc2ncnc(-c3cn(CC(F)F)nc3-c3ccccc3)c2cc1NC(=O)c1cnc(C)s1 [Example 274, N-(4-(1-(2,2-difluoroethyl)-3-phenyl-1H-pyrazol-4-yl)-7-methoxyquinazolin-6-yl)-2-methylthiazole-5-carboxamide] | 0.6 nM | 1.5 nM | 0.9 nM |
